From patent US11197856B2, “Bicyclic compounds and methods for their use in treating autism” (priority 2013, dated 2021)

Assays:
[1] = system: AMPA receptors GluR1; test: AMPA glutamate receptor-1 immunohistochemical staining of hippocampus; format: in vivo, male Wistar rats
Description: Aged rats (male Wistar rats, 18-20 months old) were divided into four groups: two vehicle-treated (groups 1 and 3) and two G-2-AllylP treated (groups 2 and 4) (all groups n=6-8). Cyclic G-2-AllylP was synthesised by the Department of Medicinal Chemistry and dissolved in normal saline before the treatment. On day 1 a single dose of cyclic G-2-AllylP was given centrally (20 ng/animal, i.c.v.) to the animals in groups 2 and 4; saline was administered to groups 1 and 3. The memory tests using Novel Object Recognition Test started either on day 3 (groups 1 and 2) or 24 (groups 3 and 4) after the treatment. On the completion of the NORT, the rats were killed with an overdose of sodium pentobarbital and were perfused transcardially with normal saline followed by 10% formalin. Tissues collected at day 7 in groups 1 and 2, and at day 28 from groups 3 and 4. The brains were kept in the same fixative for a minimum of 2 days before being processed using a standard paraffin embedding procedure. Briefly, small blocks (10×10×3 mm) of tissue were fixed for up to 24 hrs. The blocks were then infiltrated and embedded with paraffin and cut in ribbons and mounted on slides. […]
The following antibodies were used: • i) primary rabbit antibody to NMDA NR1 subunit, at 1:200 concentration in buffer, incubated for 48 hrs (Chemicon—AB1516), followed by Sigma fluorescent secondary antibody (alexaFluor 394), at 1:200 dilution, incubated for 24 hours at 40C. • ii) primary antibody to AMPA GluR1 subunit, at 1:30 concentration in buffer, incubated for 48 hrs (Chemicon—AB1504) followed by 3,3′-diaminobenzidine (DAB) at 1:200 dilution, incubated for 24 hours at 40C. • iii) Primary antibody to mSynaptophysin (Sigma—S5768), at 1:200 concentration in buffer, followed by DAB at 1:200 dilution, incubated for 24 hours at 40C. • iv) Primary antibody to rKrox-24 (Santa Cruz—catalogue number SC-189) at 1:200 concentration in the buffer, followed by anti-rabbit secondary antibody at concentration of 1:200 dilution, incubated for 24 hours at 40C. • y) Antibodies were detected using light microscopy. […]

[2] = system: Krox24; test: Krox24 immunohistochemical staining of hippocampus; format: in vivo, male Wistar rats; settings: CA1-2 regions; vs vehicle
Description: Aged rats (male Wistar rats, 18-20 months old) were divided into four groups: two vehicle-treated (groups 1 and 3) and two G-2-AllylP treated (groups 2 and 4) (all groups n=6-8). Cyclic G-2-AllylP was synthesised by the Department of Medicinal Chemistry and dissolved in normal saline before the treatment. On day 1 a single dose of cyclic G-2-AllylP was given centrally (20 ng/animal, i.c.v.) to the animals in groups 2 and 4; saline was administered to groups 1 and 3. The memory tests using Novel Object Recognition Test started either on day 3 (groups 1 and 2) or 24 (groups 3 and 4) after the treatment. On the completion of the NORT, the rats were killed with an overdose of sodium pentobarbital and were perfused transcardially with normal saline followed by 10% formalin. Tissues collected at day 7 in groups 1 and 2, and at day 28 from groups 3 and 4. The brains were kept in the same fixative for a minimum of 2 days before being processed using a standard paraffin embedding procedure. Briefly, small blocks (10×10×3 mm) of tissue were fixed for up to 24 hrs. The blocks were then infiltrated and embedded with paraffin and cut in ribbons and mounted on slides. Slides were then stored until immunostaining was commenced. Synaptogenesis in brain tissue was examined using immunohistochemical staining.
The neuronal transcript factor Krox24 staining is used as a marker for neuronal plasticity. […]

[3] = system: Akt; test: Phosphorylated AKT by Western blot; format: in vivo, mice; settings: full brain lysates; fmr1-knockout animals; normalized to GAPDH
Description: Phosphorylation levels of ERK1/2 and Akt of full brain lysates were evaluated using Western blots. The mice were sacrificed and the brains removed 12 days after the last injection, and immediately after the last behavioral test. Other studies measured pERK and pAkt in blood lymphocytes. The results of Western analysis were normalized to the amount of GAPDH protein seen in each blot.

[4] = system: hippocampal CA1 neurons; test: Dendritic arborization, dendritic and spine length after Golgi staining, mecp2 knockout mice; format: in vivo
Description: We assess the effects of cG-2-AllylP treatment on dendrites. Transgenic mecp2 knockout mice (n=15 to 20) are administered cG-2-AllylP intraperitoneally at a dose of 20 mg/kg once daily. Following sacrifice dendritic spine density, spine length and aborization are examined after Golgi staining after nine weeks, according to Table 5 below.
Dendritic length is assessed by distance from the soma of representative hippocampal CA1 neurons from 9 week old male mecp2 null mutant mice treated with either saline (3 neurons analysed from 3 separate mice, n=9) or cG-2-AllylP (20 mg/kg i.p. 1/day, from week 4; 3 neurons are analysed from 3 separate mice, n=9).

[5] = system: p-Akt; test: Phospho-flow cytometry of lymphocytes, p-Akt; format: in vivo; settings: fmr1-knockout mice; 15, 30, 60 and 240 minutes after a single treatment
Description: Lymphocytes are isolated from five fmr1-knockout and five wild-type titter mate control mice, per study time after injection with cG-2-AllylP. Lymphocytes are examined for activation of two signaling effectors, p-ERK1/2 and p-Akt using phosphorylation status as a measure of activation by flow cytometry (phospho-flow).
2. Flow cytometry total and phosphorylated AKT in lymphocytes

[6] = system: interleukin 1 beta; test: PBBI in rats: IL-1beta ELISA; format: in vivo; settings: 30 mg/kg oral gavage once daily
Description: The unilateral frontal PBBI model, which mimics the ballistic dynamics of a bullet or fragment wound to the head (Williams, 2003; Williams, 2006), was induced by stereotactic insertion of a custom probe through the right frontal cortex. A temporary cavity was formed by the rapid inflation/deflation (i.e. <40 msec) of an elastic balloon attached to the end of the probe. The PBBI apparatus consisted of a computer-controlled hydraulic pressure generator (Mitre Corp McLean, Va.), a PBBI probe and a stereotaxic frame equipped with a custom-designed probe holder as previously described (Lu, 2009; Williams, 2003). The injury severity was determined by the size of the balloon under control of the computerized hydraulic pressure. The balloon diameter calibrated to 0.63 cm expansion represented 10% of the total rat brain volume thus expressing a 10% PBBI. All surgeries were done under anaesthesia. Groups tested: Sham+vehicle, PBBI+vehicle, PBBI+cG-2-AllylP (30 mg/kg by oral gavage, 30 min post-injury, and again once daily until endpoint). […]
Target proteins were quantified with interleukin 1 beta (“IL-1beta”) (GenWay Biotech GWB-SKR107) and interleukin-6 (“IL-6”) (GenWay Biotech GWB-ZZD100) ELISAs according to manufacturer's instructions. Levels were calculated and normalized to total protein concentration as determined by BCA assay (n=9-10 per group).

C=CC[C@]12CCCN1C(=O)CNC2=O [cG-2-AllylP, (8aS)-Allyl-hexahydropyrrolo[1,2-a]pyrazine-1,4-dione] was tested, and the “number of AMPA receptors GluR1” value ([1]; CA1 granular cell layer, day 28) was “significant increase in the number of AMPA receptors”, the “number of AMPA receptors GluR1” value ([1]; CA1 stratum oriens, day 28) was “significant increase in the number of AMPA receptors” and the “number of AMPA receptors GluR1” value ([1]; CA3, day 7 or 28, 20 ng/animal i.c.v.) was “no change in the number of receptors”. For the same compound, the “density of the Krox24 staining” value [2] was “trend towards the increased density”, the “phosphorylated AKT” value [3] was “about 0.9 UA units” and the “dendritic length by distance from the soma” value ([4]; hippocampal CA1 neurons, vs saline) was “produces longer dendrites over much of the range of distances from the somas”. The “dendritic arborization and dendritic spine length” value ([4]; mecp2 knockout mice, 20 mg/kg i.p. once daily, nine weeks) was “improves dendritic arborization and increases dendritic spine length”, the “mean fluorescent intensity (MFI) for p-AKT” value [5] was “decreases at all time points” and the IL1-beta levels ([6]; 3 days after PBBI) was “increased IL1-beta levels at 3 days after PBBI”. For the same compound, the IL1-beta levels ([6]; 7 days after PBBI) was “decreased levels of IL1-beta at 7 days after PBBI”.
